According to ChEMBL document CHEMBL5634129, “Design, synthesis, and structure-activity relationships of a novel class of quinazoline derivatives as coronavirus inhibitors” (Eur J Med Chem, 2023):
The source made the active and inactive calls. The rule behind the calls is not given here.

Tests used:
[1] = Cytotoxicity in human NCI-H460 cells infected with HCoV-OC43 treated for 72 hrs by CPE inhibition assay; type: toxicity, cell-based; settings: read-out: TC50
Human coronavirus OC43 [2] = experiment: Antiviral activity against HCoV-OC43 infected in human H460 cells assessed as decrease in viral nucleocapsid protein mRNA level by qRT-PCR analysis; type: functional, organism-based; settings: NCI-H460, dose 0.1-10 µM
Human coronavirus OC43 [3] = experiment: Antiviral activity against HCoV-OC43 infected in human NCI-H460 cells treated for 72 hrs by CPE inhibition assay; type: functional, organism-based; settings: Betacoronavirus 1, NCI-H460, 72 h
Human coronavirus OC43 [4] = experiment: Antiviral activity against HCoV-OC43 infected in human H460 cells assessed as decrease in viral nucleocapsid protein level by Hoechst 33342 staining based analysis; type: functional, organism-based; settings: NCI-H460, dose 0.1-10 µM
Human coronavirus OC43 [5] = experiment: Antiviral activity against HCoV-OC43 infected in human H460 cells assessed as decrease in viral nucleocapsid protein level at 10 uM by Hoechst 33342 staining based analysis relative to control; type: functional, NCI-H460; set-up: scale not given: the % may be the effect or the level left
Human coronavirus OC43 [6] = experiment: Antiviral activity against HCoV-OC43 infected in human H460 cells assessed as viral inhibition at early stage at 10 uM measured upto 12 hrs by Hoechst 33342 staining based analysis; type: functional, organism-based; settings: NCI-H460
[7] = Selectivity index, ratio of TC50 for human NCI-H460 cells infected with HCoV-OC43 to EC50 for HCoV-OC43 infected in human NCI-H460 cells; type: toxicity, cell-based; settings: read-out: Selectivity Index
Human coronavirus OC43 [8] = experiment: Antiviral activity against HCoV-OC43 infected in human H460 cells assessed as decrease in viral nucleocapsid protein level at 2 uM by Hoechst 33342 staining based analysis; type: functional, organism-based; settings: NCI-H460
Human coronavirus OC43 [9] = experiment: Antiviral activity against HCoV-OC43 infected in human H460 cells assessed as viral inhibition at early stage at 500 nM measured upto 12 hrs by Hoechst 33342 staining based analysis; type: functional, organism-based; settings: NCI-H460

Structure (SMILES) | CC50 at 72 h [1] | Activity (Human coronavirus OC43 [2]) | EC50 (Human coronavirus OC43 [3]) | Activity (Human coronavirus OC43 [4]) | Activity (Human coronavirus OC43 [5]) | inhibition (Human coronavirus OC43 [6]) | selectivity ratio [7] | Activity (Human coronavirus OC43 [8]) | inhibition (Human coronavirus OC43 [9])
CCOc1ccc2nc(NCC3CCCO3)nc(Nc3cc(C(F)(F)F)cc(C(F)(F)F)c3)c2c1 (centres undefined) | 96.2 µM | Dose-Dependent Effect | 0.09 µM | Dose-Dependent Effect | 100% | Active | 1070 | – | –
CCOc1ccc2nc(NCCOC)nc(Nc3cc(C(F)(F)F)cc(C(F)(F)F)c3)c2c1 | 5.77 µM | Dose-Dependent Effect | 0.1 µM | Dose-Dependent Effect | 100% | – | 57.7 | – | –
FC(F)(F)c1cc(Nc2ncnc3cccnc23)cc(C(F)(F)F)c1 | 240 µM | – | 32.1 µM | – | – | – | 7.5 | – | –
CCOc1ccc2ncnc(Nc3cc(C(F)(F)F)cc(C(F)(F)F)c3)c2c1 | 219 µM | – | 0.69 µM | – | – | – | 318 | – | –
CCOc1ccc2nc(N3CCN(C)CC3)nc(Nc3cc(C(F)(F)F)cc(C(F)(F)F)c3)c2c1 | 10.7 µM | – | 0.48 µM | – | – | – | 22.3 | – | –
COc1ccc2ncnc(Nc3cc(C#N)cc(C(F)(F)F)c3)c2c1 | 240 µM | – | 0.48 µM | – | – | – | 501 | – | –
CCOc1ccc2nc(NCC(=O)OC(C)(C)C)nc(Nc3cc(C(F)(F)F)cc(C(F)(F)F)c3)c2c1 | 18.5 µM | – | 3.56 µM | – | – | – | 5.2 | – | –
O=[N+]([O-])c1ccc2ncnc(Nc3cc(C(F)(F)F)cc(C(F)(F)F)c3)c2c1 | 3.56 µM | – | 0.29 µM | – | – | – | 12.3 | – | –
CCOc1ccc2nc(NC(C)C)nc(Nc3cc(C(F)(F)F)cc(C(F)(F)F)c3)c2c1 | 8.9 µM | – | 1.43 µM | – | – | – | 6.2 | – | –
COc1cc2c(Nc3cc(C(F)(F)F)cc(C(F)(F)F)c3)ncnc2cn1 | 6.93 µM | – | 0.28 µM | – | – | – | 24.8 | – | –
CCOc1ccc2nc(NC(Cc3ccccc3)C(=O)OC(C)(C)C)nc(Nc3cc(C(F)(F)F)cc(C(F)(F)F)c3)c2c1 (centres undefined) | 38.5 µM | – | 18.5 µM | – | – | – | 2.1 | – | –
COC(=O)c1cc(C#N)cc(Nc2ncnc3ccc(OC)cc23)c1 | > 500 µM | – | 2.65 µM | – | – | – | > 189 | – | –
FC(F)(F)c1cc(Nc2ncnc3ccc(Br)cc23)cc(C(F)(F)F)c1 | 2.47 µM | – | 0.35 µM | – | – | – | 7.1 | – | –
COC(=O)c1cc(Nc2ncnc3ccc(OC)cc23)cc(C(F)(F)F)c1 | 26.7 µM | – | 0.48 µM | – | – | – | 55.6 | – | –
O=[N+]([O-])c1cccc(Nc2ncnc3ccc(Cl)cc23)c1 | 51.7 µM | – | 4.28 µM | – | – | – | 12.1 | – | –
CC(C)Oc1ccc2ncnc(Nc3cc(C(F)(F)F)cc(C(F)(F)F)c3)c2c1 | 388 µM | – | 43.1 µM | – | – | – | 9 | – | –
COc1ccc2ncnc(Nc3ccc(F)c(Cl)c3)c2c1 | 12.8 µM | – | 3.56 µM | – | – | – | 3.6 | – | –
FC(F)(F)c1cc(Nc2ncnc3ncccc23)cc(C(F)(F)F)c1 | 32.1 µM | – | 5.14 µM | – | – | – | 6.2 | – | –
Fc1ccc2ncnc(Nc3cc(C(F)(F)F)cc(C(F)(F)F)c3)c2c1 | 12.8 µM | – | 0.88 µM | – | – | – | 14.6 | – | –
Cc1ccc2ncnc(Nc3cc(C(F)(F)F)cc(C(F)(F)F)c3)c2c1 | 96.2 µM | – | 1.19 µM | – | – | – | 80.9 | – | –
FC(F)(F)c1cc(Nc2ncnc3cc(Cl)ccc23)cc(C(F)(F)F)c1 | 1.43 µM | – | 0.47 µM | – | – | – | 3 | – | –
COc1ccc2ncnc(NNC(=O)c3cc(C(F)(F)F)cc(C(F)(F)F)c3)c2c1 | 289 µM | – | 1.71 µM | – | – | – | 289 | – | –
COc1ccc2ncnc(Nc3cc(F)cc(F)c3)c2c1 | 388 µM | – | 23.9 µM | – | – | – | 16.3 | – | –
CCOc1ccc2nc(NCc3ccco3)nc(Nc3cc(C(F)(F)F)cc(C(F)(F)F)c3)c2c1 | 10.7 µM | – | 1.19 µM | – | – | – | 9 | – | –
CCCCNc1nc(Nc2cc(C(F)(F)F)cc(C(F)(F)F)c2)c2cc(OCC)ccc2n1 | 10.7 µM | – | 1.43 µM | – | – | – | 7.5 | – | –
CCOc1ccc2nc(NCCN3CCOCC3)nc(Nc3cc(C(F)(F)F)cc(C(F)(F)F)c3)c2c1 | 5.77 µM | Dose-Dependent Effect | 0.12 µM | Dose-Dependent Effect | 100% | – | 48.1 | – | –
CCC(CC)COC(=O)[C@H](C)N[P@](=O)(OC[C@H]1O[C@@](C#N)(c2ccc3c(N)ncnn23)[C@H](O)[C@@H]1O)Oc1ccccc1 [REMDESIVIR] | > 20 µM | – | 0.14 µM | – | – | – | > 143 | Active | Active
CCOc1ccc2nc(NC3CC3)nc(Nc3cc(C(F)(F)F)cc(C(F)(F)F)c3)c2c1 | 4.81 µM | – | 0.31 µM | – | – | – | 15.5 | – | –
COc1ccc2ncnc(Sc3cc(C(F)(F)F)cc(C(F)(F)F)c3)c2c1 | 96.2 µM | – | > 55.6 µM | – | – | – | 96.2 | – | –
